Results on 20 compounds are retold here after patent publication US9409884B2 (Rigel Pharmaceuticals, Inc., priority 2012, dated 2016).

What is called EC50 is the concentration giving half of the maximal effect. Read a high EC50 as lower potency in that assay.

The first experiment has as its target AMPK. The experiment in a line: AMPK activation, enzyme-linked immunosorbent assay. It is filed as biochemical. The following applies: Table 8, compounds of Table 1. The gist of the method:
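Read-out: ELISA, used to detect compound-driven activation of AMPK.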
Regarding `N#Cc1ccc(-n2cc(CN3CC[C@@H](Oc4ccc5oc(C(=O)NC6CCN(Cc7ccc(OC(F)(F)F)cc7)CC6)cc5c4)[C@H](F)C3)cn2)cc1` [Compound 1-171, 5-((3,4-trans)-1-((1-(4-cyanophenyl)-1H-pyrazol-4-yl)methyl)-3-fluoropiperidin-4-yloxy)-N-(1-(4-(trifluoromethoxy)benzyl)piperidin-4-yl)benzofuran-2-carboxamide], the EC50 is under 100 nM. In turn, `CC(C)(C)OC(=O)NCCCNC(=O)c1ccc(OC2CCN(c3ccc(C(F)(F)F)cc3)CC2)cn1` [Compound 1-49, tert-butyl 3-(5-(1-(4-(trifluoromethyl)phenyl)piperidin-4-yloxy)picolinamido) propylcarbamate] returned an EC50 of under 100 nM. On the same count and under the same terms, under `CN(C(=O)c1cc2cc(OC3CCN(c4ccc(C(F)(F)F)cc4)CC3)ccc2o1)C1CCN(Cc2ccccc2C#N)CC1` [Compound 1-111, N-(1-(2-cyanobenzyl)piperidin-4-yl)-N-methyl-5-(1-(4-(trifluoromethyl)phenyl)piperidin-4-yloxy)benzofuran-2-carboxamide] stands 100 to 500 nM; under `O=C(NC1CCN(S(=O)(=O)c2cccnc2)CC1)c1cc2ccc(OC3CCN(c4ccc(C(F)(F)F)cc4)CC3)cc2o1` [Compound 1-106, N-(1-(pyridin-3-ylsulfonyl)piperidin-4-yl)-6-(1-(4-(trifluoromethyl)phenyl)piperidin-4-yloxy)benzofuran-2-carboxamide], 100 to 500 nM; under `CN(C(=O)c1cc2cc(OC3CCN(c4ccc(C(F)(F)F)cc4)CC3)ccc2o1)C1CCN(Cc2cccnc2)CC1` [Compound 1-109, N-methyl-N-(1-(pyridin-3-ylmethyl)piperidin-4-yl)-5-(1-(4-(trifluoromethyl)phenyl)piperidin-4-yloxy)benzofuran-2-carboxamide], under 100 nM. On the same count and under the same terms, under `CC(C)(C)OC(=O)N1CCC(NC(=O)c2cc3ccc(OC4CCN(c5ccc(C(F)(F)F)cc5)CC4)cc3s2)CC1` [Compound 1-140, tert-butyl 4-(6-(1-(4-(trifluoromethyl)phenyl)piperidin-4-yloxy)benzo[b]thiophene-2-carboxamido) piperidine-1-carboxylate] stands 500 to 1000 nM; under `O=C(NC1CCNCC1)c1cc2cc(OC3CCN(c4ccc(C(F)(F)F)cc4)CC3)ccc2o1` [Compound 1-86, N-(piperidin-4-yl)-5-(1-(4-(trifluoromethyl)phenyl)piperidin-4-yloxy)benzofuran-2-carboxamide], over 10000 nM. Same read-out and setting: under `COC(=O)c1ccc(CN2CCC(NC(=O)c3ccc(OC4CCN(c5ccc(C(F)(F)F)cc5)CC4)cn3)CC2)cc1` [Compound 1-8, methyl 4-((4-(5-(1-(4-(trifluoromethyl)phenyl)piperidin-4-yloxy)picolinamido)piperidin-1-yl)methyl)benzoate] stands under 100 nM; under `O=C(NC1CCN(Cc2cccnc2)CC1)c1ccc(OC2CCN(c3ccc(C(F)(F)F)cc3)CC2)cn1` [Compound 1-5, N-(1-(pyridin-3-ylmethyl)piperidin-4-yl)-5-(1-(4-(trifluoromethyl)phenyl)piperidin-4-yloxy) picolinamide], under 100 nM.

The same experiment, now with this note: Table 9, compounds of Table 2.
For the compound `O=C(NC1CCN(Cc2ccc(C(F)(F)F)cc2)CC1)c1ccc2[nH]c3c(c2c1)CN(Cc1ccc(C(F)(F)F)cc1)CC3` [Compound 2-13, N-(1-(4-trifluoromethylbenzyl)piperidin-4-yl)-2-(4-(trifluoromethyl)benzyl)-2,3,4,5-tetrahydro-1H-pyrido[4,3-b]indole-8-carboxamide], the EC50 was under 500 nM. Consider `O=C(NC1CCN(Cc2cocn2)CC1)c1ccc2[nH]c3c(c2c1)CN(Cc1ccc(C(F)(F)F)cc1)CC3` [Compound 2-54, N-(1-(oxazol-4-ylmethyl)piperidin-4-yl)-2-(4-(trifluoromethyl)benzyl)-2,3,4,5-tetrahydro-1H-pyrido[4,3-b]indole-8-carboxamide], for which the EC50 was under 500 nM.

`O=C(NC1CCN(CCc2ccccc2)CC1)c1ccc2[nH]c3c(c2c1)CN(Cc1ccc(C(F)(F)F)cc1)CC3` [Compound 2-14, N-(1-phenethylpiperidin-4-yl)-2-(4-(trifluoromethyl)benzyl)-2,3,4,5-tetrahydro-1H-pyrido[4,3-b]indole-8-carboxamide]: the EC50 was under 500 nM.

The same experiment, now with this note: Table 12, compounds of Table 5.
For `COc1ccc(CN2CCC(NC(=O)c3cccc(OC4CCN(Cc5cnn(-c6ccc(F)cc6)c5)CC4)c3)CC2)cc1` [Compound 5-111, 3-(1-((1-(4-fluorophenyl)-1H-pyrazol-4-yl)methyl)piperidin-4-yloxy)-N-(1-(4-methoxybenzyl)piperidin-4-yl)benzamide], the EC50 was under 1000 nM.

Still in this experiment, the particulars now being: Table 13, compounds of Table 6.
As for `CN(C)C(=O)c1ccc(N2CCN(C(=O)c3ccc4oc(C(=O)NC5CCN(Cc6ccc(C#N)cc6)CC5)cc4c3)CC2)cc1` [Compound 6-110, N-(1-(4-cyanobenzyl)piperidin-4-yl)-5-(4-(4-(dimethylcarbamoyl)phenyl)piperazine-1-carbonyl) benzofuran-2-carboxamide], the EC50 is 100 to 1000 nM.

`CS(=O)(=O)c1ccc(CN2CCN(C(=O)c3ccc4oc(C(=O)NC5CCN(Cc6ccc(C#N)cc6)CC5)cc4c3)CC2)cc1Cl` [Compound 6-112, 5-(4-(3-chloro-4-(methylsulfonyl)benzyl)piperazine-1-carbonyl)-N-(1-(4-cyanobenzyl)piperidin-4-yl)benzofuran-2-carboxamide]: the EC50 was under 100 nM.

For the compound `N#Cc1ccc(CN2CCC(NC(=O)c3cc4cc(C(=O)N5CCN(Cc6ccc(S(=O)(=O)C(F)(F)F)cc6)CC5)ccc4o3)CC2)cc1` [Compound 6-128, N-(1-(4-cyanobenzyl)piperidin-4-yl)-5-(4-(4-(trifluoromethylsulfonyl)benzyl)piperazine-1-carbonyl)benzofuran-2-carboxamide], the EC50 was under 100 nM. The same measure, in the same setting: under `O=C(NC1CCN(Cc2ccc(OC(F)(F)F)cc2)CC1)c1cc2cc(C(=O)N3CCN(c4cccc(C(F)(F)F)c4)CC3)ccc2o1` [Compound 6-140, N-(1-(4-(trifluoromethoxy)benzyl)piperidin-4-yl)-5-(4-(3-(trifluoromethyl)phenyl)piperazine-1-carbonyl) benzofuran-2-carboxamide] stands under 100 nM.

The same experiment, now with this note: Table 14, compounds of Table 7.
The compound `COc1ccc(C(=O)C2CCN(C(=O)c3ccc(C(=O)N[C@H]4CCN(Cc5ccc(OC(F)(F)F)cc5)C[C@H]4F)cn3)CC2)cc1` (relative stereo) [Compound 7-123, N-((cis)-3-fluoro-1-(4-(trifluoromethoxy)benzyl)piperidin-4-yl)-6-(4-(4-methoxybenzoyl)piperidine-1-carbonyl)nicotinamide] came in with an EC50 of under 1000 nM. On the same count and under the same terms, under `COc1ccc(CN2CCC(NC(=O)c3ccc(C(=O)N4CCC(Oc5ccc(S(C)(=O)=O)c(C)c5)CC4)nc3)CC2)cc1` [Compound 7-16, N-(1-(4-methoxybenzyl)piperidin-4-yl)-6-(4-(3-methyl-4-(methylsulfonyl)phenoxy)piperidine-1-carbonyl) nicotinamide] stands 1000 to 10000 nM; under `COc1ccc(C(=O)C2CCN(C(=O)c3ccc(C(=O)NC4CCN(Cc5ccc(OC(F)(F)F)cc5)CC4(C)C)cn3)CC2)cc1` (centres unmarked) [Compound 7-85, N-(3,3-dimethyl-1-(4-(trifluoromethoxy)benzyl)piperidin-4-yl)-6-(4-(4-methoxybenzoyl)piperidine-1-carbonyl)nicotinamide], under 1000 nM.
